Data taken from patent US11332470B2, “CXCR4 inhibitors and uses thereof” (X4 Pharmaceuticals, Inc., priority 2016, dated 2022).

What was measured:
[1] = in vitro; conditions: human, Caco-2, pH 7.4
Procedure: The goal of this assay was to evaluate the intestinal absorption potential of drug candidates using Caco-2 cell lines.
1. Prewarm Prewarm HBSS Buffer in 37° C. water bath
2. Sonicate Take compounds from −20° C., sonicate for a few minutes (no less than 1 minute)
• Donor solution buffer: For A-to-B Direction: HBSS buffer with 0.3% DMSO and 5 μM LY: add 150 μL DMSO and 50 μL LY (5 mM) into 50 ml HBSS buffer (pH 7.4). HBSS buffer with 0.1% DMSO and 5 μM LY: add 50 μL DMSO and 50 μL LY (5 mM) into 50 mL HBSS buffer (pH 7.4). For B-to-A Direction: HBSS buffer with 0.3% DMSO: add 150 μL DMSO into 50 ml HBSS buffer (pH 7.4). HBSS buffer with 0.1% DMSO: add 50 μL DMSO into 50 ml HBSS buffer (pH 7.4). Receiver Solution Buffer: For A-to-B Direction: Prepare HBSS buffer with 0.4% DMSO: add 200 μL DMSO into 50 ml HBSS buffer (pH 7.4). For B-to-A Direction: Prepare HBSS buffer with 0.4% DMSO and 5 μM LY: add 200 μL DMSO and 50 μL LY (5 mM) into 50 ml HBSS buffer (pH 7.4).
4. Measure TEER Take cell culture plate out of incubator, wash the cell monolayers with HBSS buffer, and then measure TEER values at Rm temperature. 5. Centrifuge Centrifuge the compound solution (from step 3) at 4000 rpm for 5 min before loading to donor chambers. 6. Dosing Add solution based on the volumes listed in the following table (make sure to take extra 100 μL of donor sample for TO as Backup).
7. Apical LYT0 samples To determine LY concentration in the apical chamber, take 100 μL sample from apical chambers into an opaque plate for LYT0. 8. Prewarm Prewarm apical and basolateral plates at 37° C. for about 5 min, then begin transport by placing the apical plate onto basolateral plate. 9. Incubation Keep the plates in incubator at 37° C. for 90 min. 10.
Prepare Working Solution in MeOH/H2O (1:1)
• Prepare 1×solution: 3 μL (20×)+57 μL of 0.4% DMSO HBSS+60 μL ACN with IS (Osalmid or Imipramine)−120 μL (1×) 11. Transport termination Separate the apical plate from the basolateral plate after 90-min incubation. 12. Measure LY Take 100 μL samples from basolateral plate to an opaque plate as LYT90. 13. Measure LY concentrations for LYT0 and LYT90 by Fluorometer (at excitation of 485 nm/emission of 535 nm). 14.
Study details: Test concentration 10 μM
Test systems: Caco-2/HBSS solution
Incubation conditions: 0, 90 min at 37° C.
Sample size: Duplicates (n=2)
Bioanalytical method: LC-MS/MS
For Millicell-24 Cell Culture Plates: surface area of the membrane=0.7 cm^2, VA=0.8 mL (A-to-B) or 0.4 mL (B-to-A)
The compound numbers correspond to the compound numbers in Table 1.

[2] = molecular target: T1, CXCR4 (Jurkat cells expressing CXCR4) (Homo sapiens, UniProt P61073); test: Chemokine (CXCL12-AF647) binding inhibition assay; conditions: CXCL12-AF647 25 ng/mL, read-out: IC50 CXCL-12 binding Jurkat
T1 construct: Jurkat cells expressing CXCR4; endogenous in cells; host or cells: Jurkat
T1 sequence (P61073 whole entry): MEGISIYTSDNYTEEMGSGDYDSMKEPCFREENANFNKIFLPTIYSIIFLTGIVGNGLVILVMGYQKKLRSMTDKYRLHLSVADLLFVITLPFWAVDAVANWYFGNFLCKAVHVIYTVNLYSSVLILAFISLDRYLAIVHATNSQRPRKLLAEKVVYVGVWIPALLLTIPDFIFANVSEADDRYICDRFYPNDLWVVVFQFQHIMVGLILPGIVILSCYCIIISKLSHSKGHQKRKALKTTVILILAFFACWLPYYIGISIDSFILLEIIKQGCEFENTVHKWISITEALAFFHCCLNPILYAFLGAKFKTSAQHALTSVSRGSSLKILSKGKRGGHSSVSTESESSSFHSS
Procedure: Chemokine (CXCL12-AF647) Binding Inhibition Assay
Jurkat cells expressing CXCR4 were washed once with assay buffer (Hanks' balanced salt solution with 20 mM HEPES buffer and 0.2% bovine serum albumin, pH 7.4) and then incubated for 15 min at room temperature with the test compounds diluted in assay buffer at dose-dependent concentrations. Subsequently, CXCL12-AF647 (25 ng/mL) was added to the compound-incubated cells. The cells were incubated for 30 min at room temperature. Thereafter, the cells were washed twice in assay buffer, fixed in 1% paraformaldehyde in PBS, and analyzed on the FL4 channel of a FACSCalibur flow cytometer equipped with a 635-nm red diode laser (Becton Dickinson, San Jose, Calif., USA).
The percentages of inhibition of CXCL12-AF647 binding were calculated according to the formula: [1−((MFI−MFINC)/(MFIPC−MFINC))]×100 where MFI is the mean fluorescence intensity of the cells incubated with CXCL12-AF647 in the presence of the inhibitor, MFINC is the mean fluorescence intensity measured in the negative control (i.e., autofluorescence of unlabeled cells), and MFIPC is the mean fluorescence intensity of the positive control (i.e., cells exposed to CXCL12-AF647 alone).

[3] = molecular target: T2, CXCR4 (U87.CXCR4 cells) (Homo sapiens, UniProt P61073); test: Intracellular CXCL-12-induced calcium mobilization assay (FLIPR); assay type: cell-based; conditions: CXCL-12 25-50 ng/mL, read-out: IC50 CXCL-12 Ca2+ flux U87.CXCR4+
T2 construct: expressed in transfected cells; host or cells: U87 (U87.CXCR4)
T2 sequence (P61073 whole entry): as above
Procedure: Intracellular CXCL-12-Induced Calcium Mobilization Assay
Intracellular calcium mobilization induced by chemokines or chemokine-derived peptides were evaluated using a calcium responsive fluorescent probe and a FLIPR system. The CXCR-4 transfected U87 cell line (U87.CXCR4) cells were seeded in gelatine-coated black-wall 96-well plates at 20,000 cells per well and incubated for 12 hours. Cells were then loaded with the fluorescent calcium probe Fluo-2 acetoxymethyl at 4 μM final concentration in assay buffer (Hanks' balanced salt solution with 20 mM HEPES buffer and 0.2% bovine serum albumin, pH 7.4) for 45 min at 37° C. The intracellular calcium mobilization induced by the CXCL-12 (25-50 ng/mL) was then measured at 37° C. by monitoring the fluorescence as a function of time in all the wells simultaneously using a fluorometric imaging plate reader (FLIPR Tetra, Molecular Devices).

Row | Compound | Papp A→B at 90 min, 10 μM [1] [×10⁻⁶ cm/s] | Papp B→A at 90 min, 10 μM [1] [×10⁻⁶ cm/s] | efflux ratio at 90 min, 10 μM [1] | IC50 [2] [nM] | IC50 [3] [nM]
1 | Cc1cccnc1C1CCCCN1Cc1cn2c(N3CCN(C)CC3)cccc2n1 (centres unmarked) [Compound I-1, 5-(4-methylpiperazin-1-yl)-2-((2-(3-methylpyridin-2-yl)piperidin-1-yl)methyl)imidazo[1,2-a]-pyridine] | 0.1 to 10 | 10 to 30 | 0.1 to 10 | 0.01 to 100 | 100 to 1000
2 | Cc1cccnc1C1CCCCN1Cc1ccccc1-n1cccn1 (centres unmarked) [Compound I-2, 2-(1-(2-(1H-pyrazol-1-yl)benzyl)piperidin-2-yl)-3-methylpyridine] | > 30 | > 30 | 0.1 to 10 | ≥ 1000 | ≥ 1000
3 | CN1CCN(c2cccc3nc(C4CCCCN4Cc4ccccc4-n4cccn4)[nH]c23)CC1 (centres unmarked) [Compound I-3, 2-(1-(2-(1H-pyrazol-1-yl)benzyl)piperidin-2-yl)-7-(4-methylpiperazin-1-yl)-1H-benzo[d]imidazole] |  |  |  | ≥ 1000 | ≥ 1000
4 | Cc1cccnc1C1CCCN1Cc1ccccc1-n1cccn1 (centres unmarked) [Compound I-4, 2-(1-(2-(1H-pyrazol-1-yl)benzyl)pyrrolidin-2-yl)-3-methylpyridine] | > 30 | 10 to 30 | 0.1 to 10 | ≥ 1000 | 100 to 1000
5 | CN1CCN(c2cccc3[nH]c(C4CCCN4Cc4ccccc4-n4cccn4)nc23)CC1 (centres unmarked) [Compound I-5, 2-(1-(2-(1H-pyrazol-1-yl)benzyl)pyrrolidin-2-yl)-7-(4-methylpiperazin-1-yl)-1H-benzo[d]imidazole] |  |  |  | ≥ 1000 | ≥ 1000
6 | Cc1cccnc1C1CCCN1Cc1cn2c(N3CCN(C)CC3)cccc2n1 (centres unmarked) [Compound I-6, 5-(4-methylpiperazin-1-yl)-2-((2-(3-methylpyridin-2-yl)pyrrolidin-1-yl)methyl)imidazo[1,2-a]-pyridine] | 0.1 to 10 | 10 to 30 | 10 to 30 | 0.01 to 100 | 0.01 to 100
7 | Cc1cccnc1C1CCCN1Cc1nc2cccc(N3CCN(C)CC3)n2c1Br (centres unmarked) [Compound I-7, 3-bromo-5-(4-methylpiperazin-1-yl)-2-((2-(3-methylpyridin-2-yl)pyrrolidin-1-yl)methyl)imi-dazo[1,2-a]pyridine] | 0.1 to 10 | 10 to 30 | 0.1 to 10 | 100 to 1000 | 100 to 1000
8 | Cc1cccnc1C1CCCN1Cc1nc2cccc(N3CCN(C)CC3)n2c1CO (centres unmarked) [Compound I-8, (5-(4-methylpiperazin-1-yl)-2-((2-(3-methylpyridin-2-yl)pyrrolidin-1-yl)methyl)imidazo[1,2-a]pyridin-3-yl)methanol] | 0.1 to 10 | 10 to 30 | > 30 | 0.01 to 100 | 100 to 1000
9 | Cc1cccnc1C1CCCN1Cc1nc2c(N3CCN(C)CC3)cccc2[nH]1 (centres unmarked) [Compound I-11] | 0.1 to 10 | 10 to 30 | 0.1 to 10 | 0.01 to 100 | 0.01 to 100
10 | CN1CCN(c2cccc3nc(CN4CCCC4c4nccc5ccccc45)cn23)CC1 (centres unmarked) [Compound I-14] | 0.1 to 10 | 10 to 30 | 0.1 to 10 | 0.01 to 100 | 100 to 1000
11 | CN1CCN(c2cccc3nc(CN4CCCC4c4ncccc4Cl)cn23)CC1 (centres unmarked) [Compound I-27] | 0.1 to 10 | 10 to 30 | 0.1 to 10 | 0.01 to 100 | 100 to 1000
12 | Cc1cccnc1C1CCCN1Cc1ncccc1-n1cccn1 (centres unmarked) [Compound I-66] |  |  |  | 100 to 1000 | ≥ 1000
13 | c1ccc(C2CCCN2Cc2ncccc2-n2cccn2)nc1 (centres unmarked) [Compound I-67] |  |  |  | ≥ 1000 | ≥ 1000
14 | Cc1cccnc1C1CCCN1Cc1nc2cccc(N3CCN(C)CC3)c2o1 (centres unmarked) [Compound I-71] |  |  |  | 100 to 1000 | ≥ 1000
15 | Cc1cccnc1C1CCCN1Cc1nc2c(N3CCN(C)CC3)cccc2o1 (centres unmarked) [Compound I-72] |  |  |  | ≥ 1000 | ≥ 1000
16 | Cc1cccnc1C1CCCN1Cc1cc2c(N3CCN(C)CC3)cccc2o1 (centres unmarked) [Compound I-73] |  |  |  | 100 to 1000 | ≥ 1000

Row | Compound | Papp A→B at 90 min, 10 μM [1] [×10⁻⁶ cm/s] | Papp B→A at 90 min, 10 μM [1] [×10⁻⁶ cm/s] | efflux ratio at 90 min, 10 μM [1] | IC50 [2] [nM] | IC50 [3] [nM]
17 | Cc1cccnc1C1CCCN1C(=O)c1cn2c(N3CCN(C)CC3)cccc2n1 (centres unmarked) [Compound I-74] |  |  |  | ≥ 1000 | ≥ 1000
18 | Cc1cccnc1CN1CCCC1c1nc2ccccc2n1C1CCN(C)CC1 (centres unmarked) [Compound I-77] |  |  |  | 0.01 to 100 | ≥ 1000
19 | CN1CCC(n2c(C3CCCN3Cc3ccccn3)nc3ccccc32)CC1 (centres unmarked) [Compound I-78] |  |  |  | 0.01 to 100 | ≥ 1000
20 | Cc1cccnc1C1CCCN1Cc1nc2ccccn2c1CCC#N (centres unmarked) [Compound I-81] |  |  |  | 100 to 1000 | ≥ 1000
21 | Cc1cccnc1C1CCCN1Cc1cccc(C(=O)Nc2ccncc2)n1 (centres unmarked) [Compound I-90] |  |  |  | 100 to 1000 | ≥ 1000
22 | OCc1c(CN2CCCC2c2ccccn2)nc2ccccn12 (centres unmarked) [Compound I-93] |  |  |  | 100 to 1000 | ≥ 1000
23 | c1ccc(C2CCCN2Cc2nc3ccccn3c2COc2cccnc2)nc1 (centres unmarked) [Compound I-95] |  |  |  | ≥ 1000 | ≥ 1000
24 | Cc1cccnc1CN1CCCC1c1nc2ccccn2c1N1CCN(C)CC1 (centres unmarked) [Compound I-100] |  |  |  | 0.01 to 100 | 0.01 to 100
25 | Cc1cccnc1C1CCCN1Cc1nccn1-c1ccccn1 (centres unmarked) [Compound I-113] |  |  |  | ≥ 1000 | ≥ 1000
26 | Cc1cccnc1C1CCCN1Cc1nccn1-c1cccnc1 (centres unmarked) [Compound I-114] |  |  |  | 100 to 1000 | ≥ 1000
27 | Cc1cccnc1C1CCCN1Cc1nccn1-c1ccncc1 (centres unmarked) [Compound I-115] |  |  |  | 100 to 1000 | ≥ 1000
28 | Cc1cccnc1C1CCCN1Cc1cccc(CC2CCN(C)CC2)n1 (centres unmarked) [Compound I-116] |  |  |  | ≥ 1000 | ≥ 1000
29 | Cc1cccnc1C1CCCN1Cc1nccn1C(=O)N1CCN(C)CC1 (centres unmarked) [Compound I-125] |  |  |  | 100 to 1000 | ≥ 1000
30 | Cc1cccnc1CN1CCCC1c1cn2c(N3CCN(CC(F)(F)F)CC3)cccc2n1 (centres unmarked) [Compound I-129] |  |  |  | ≥ 1000 | ≥ 1000
31 | c1ccc(C2CCCN2Cc2nc3ccccn3c2N2CCN(c3ccncc3)CC2)nc1 (centres unmarked) [Compound I-133] |  |  |  | 100 to 1000 | ≥ 1000
